Results on four compounds are retold here after ChEMBL document CHEMBL3638507, “Heteroaromatic compounds as BTK inhibitors” (2015).

The target of the test is Tyrosine-protein kinase BTK (Homo sapiens, UniProt Q06187). Kind of test: HTRF Assay: An HTRF assay (Cisbio KinEASE-TK cat #62TKOPEC) was performed to quantitate the ability of test compounds to inhibit BTK mediated phosphorylation of substrate. Assays were assembled in 384 well plates where 6 nM of full-length human His-tagged BTK (Life Technologies cat #PV3587) and test compound at varying concentrations were preincubated for 15 minutes at 28° C. Then, 1 uM of TK substrate-biotin and 30 uM ATP were added and incubated for an additional 30 minutes at 28° C. Phospohrylation was detected by adding 62.5 nM Streptavidin-XL665 and TK-Antibody Cryptate diluted 1:100 in HTRF detection buffer (Cisbio cat #62SDBRDF) and incubated for 60 minutes at RT. The plate was read on an Envision plate reader and the fluoresence is measured at 620 nm (cryptate) and 665 nm (XL665). A ratio is calculated (665/620) and converted to POC relative to control and blank wells.Assay Buffer:50 mM HEPES (Invitrogen #15630), 0.01% Brij-35 (sigma #B4184), 10 mM MgC12 (Sigma M1028), 1 mM EGTA.
Sequence of Tyrosine-protein kinase BTK (Q06187 whole entry): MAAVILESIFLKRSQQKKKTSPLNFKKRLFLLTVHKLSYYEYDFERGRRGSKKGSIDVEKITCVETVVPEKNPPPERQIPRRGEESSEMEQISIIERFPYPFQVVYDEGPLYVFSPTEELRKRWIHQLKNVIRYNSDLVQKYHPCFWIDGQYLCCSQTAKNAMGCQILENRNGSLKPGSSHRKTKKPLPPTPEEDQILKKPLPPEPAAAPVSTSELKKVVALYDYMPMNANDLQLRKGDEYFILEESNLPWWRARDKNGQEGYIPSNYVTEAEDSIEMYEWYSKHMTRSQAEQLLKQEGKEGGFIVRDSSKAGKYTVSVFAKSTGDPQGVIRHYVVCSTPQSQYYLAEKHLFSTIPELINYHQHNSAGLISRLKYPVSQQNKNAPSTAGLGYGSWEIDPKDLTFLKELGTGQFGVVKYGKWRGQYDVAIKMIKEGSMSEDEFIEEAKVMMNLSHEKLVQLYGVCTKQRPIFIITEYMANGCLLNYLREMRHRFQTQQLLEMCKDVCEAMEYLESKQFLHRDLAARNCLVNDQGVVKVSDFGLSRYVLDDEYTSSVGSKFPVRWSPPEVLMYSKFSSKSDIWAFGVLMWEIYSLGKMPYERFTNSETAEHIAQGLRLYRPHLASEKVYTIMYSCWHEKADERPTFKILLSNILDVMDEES
Regarding `C/C=C/C(=O)N1CC2(CC(n3nc(-c4ccc(Oc5ccccc5)cn4)c4c(N)ncnc43)C2)C1`, the IC50 was 65 nM.
With `C=CC(=O)N1CC2(CC(n3nc(-c4ccc(Oc5ccccc5)cn4)c4c(N)ncnc43)C2)C1`, the IC50 is 1.6 nM.
Consider `CC#CC(=O)N1CC2(CC(n3nc(-c4ccc(Oc5ccccc5)cn4)c4c(N)ncnc43)C2)C1`, for which the IC50 was 1 nM.
Take `CC#CC(=O)N1CC[C@]2(C1)C[C@H](n1nc(-c3ccc(Oc4ccccc4)cn3)c3c(N)ncnc31)C2`: the IC50 was 4 nM.

A word on the IC50: it is the concentration at which inhibition is half-maximal.
